According to patent US20250144067A1, “PERSONALIZED STARVATION THERAPY FOR CANCER” (Faeth Therapeutics, Inc., priority 2021, published 2025):
Structures can show the parent of a compound that is named as a salt. Where two headings read alike, the source gives them in different places.

Tests used:
[1] = system: NCI-H292 lung cancer cells; experiment: FDA drug screening, complete media vs cholesterol-free media with simvastatin (TABLE 2); format: cell-based, human
[2] = system: NCI-H292 lung cancer cells; experiment: FDA drug screening, complete media vs cholesterol-free media without statin (TABLE 1); format: cell-based, human
[3] = NCI-H292 cells, cholesterol-free media with simvastatin 0.04 μM, FDA drug library screen (TABLE 2)
[4] = NCI-H292 cells, complete media, FDA drug library screen (TABLE 2)
[5] = Complete minus Cholesterol-free, […]
[6] = NCI-H292 cells, cholesterol-free media without statin, FDA drug library screen
[7] = NCI-H292 cells, complete media, FDA drug library screen
[8] = NCI-H292 cells, cholesterol-free media with simvastatin 0.04 μM, cell growth value in FDA drug screen
[9] = NCI-H292 cells, complete media, cell growth value in FDA drug screen
[10] = complete media minus cholesterol-free media + simvastatin, >0 enhanced anti-cancer activity, about 0 neutral, <0 antagonist
[11] = Complete minus Cholesterol-free, >0 enhanced anti-cancer activity, about 0 neutral, <0 antagonist
[12] = NCI-H292 cells, FDA library drug in cholesterol-free media with simvastatin 0.04 μM
[13] = NCI-H292 cells, FDA library drug in complete media
[14] = complete media vs cholesterol-free media + simvastatin (0.04 μM), >0 enhanced anti-cancer activity, about 0 neutral, <0 antagonist
[15] = Complete minus Cholesterol-free, greater than 0 enhanced anti-cancer activity, about 0 neutral, below 0 antagonist
[16] = NCI-H292 cells, FDA drug library screen, cholesterol-free media without statin
[17] = NCI-H292 cells, FDA drug library screen, complete media
[18] = NCI-H292 cells, cholesterol-free media without statin
[19] = complete vs cholesterol-free media, greater than 0 enhanced anti-cancer activity, about 0 neutral, below 0 antagonists
[20] = NCI-H292 cells, FDA drug library screen, cholesterol-free media with simvastatin 0.04 μM
[21] = Complete minus Cholesterol-free, greater than 0 enhanced anti-cancer activity, about 0 neutral, below 0 antagonists
[22] = NCI-H292 cells in cholesterol-free media without statin
[23] = NCI-H292 cells in complete media
[24] = complete vs cholesterol-free media, >0 enhanced anti-cancer activity, about 0 neutral, <0 antagonist
[25] = complete media minus cholesterol-free media + simvastatin (0.04 μM), >0 enhanced anti-cancer activity, about 0 neutral, <0 antagonist

Compound: CC(=O)O[C@H]1[C@H]2O[C@]23[C@@H]2CC[C@]4(O)C[C@@H](O)CC[C@]4(C)[C@H]2CC[C@]3(C)[C@H]1c1ccc(=O)oc1 [Cinobufotalin]
- Cholesterol-free media + simvastatin (0.04 μM) [1, 3]: 0.03115
- Complete Media [1, 4]: 0.01046
- Difference ([1]; complete media minus cholesterol-free media + simvastatin (0.04 μM), […]): −0.02
- Difference [2, 5]: −0.04
- Cholesterol-free [2, 6]: 0.003242
- Complete [2, 7]: −0.03407

Compound: CCn1nc(C(=O)O)c(=O)c2cc3c(cc21)OCO3 [Cinoxacin]
- Cholesterol-free media + simvastatin (0.04 μM) [1, 8]: 0.9547
- Complete Media [1, 9]: 0.9782
- Difference [1, 10]: 0.02
- Difference [2, 11]: −0.05
- Cholesterol-free [2, 6]: 0.9965
- Complete [2, 7]: 0.951

Compound: CC(C)(Oc1ccc(C2CC2(Cl)Cl)cc1)C(=O)O (centres unmarked) [Ciprofibrate]
- Cholesterol-free media + simvastatin (0.04 μM) [1, 12]: 1.569
- Complete Media [1, 13]: 1.161
- Difference [1, 14]: −0.41
- Difference [2, 15]: −0.11
- Cholesterol-free [2, 16]: 1.09
- Complete [2, 17]: 0.9746

Compound: O=C(O)c1cn(C2CC2)c2cc(N3CCNCC3)c(F)cc2c1=O [Ciprofloxacin]
- Cholesterol-free media + simvastatin (0.04 μM) [1, 8]: 0.9642
- Complete Media [1, 9]: 1.043
- Difference [1, 10]: 0.08
- Cholesterol-free [2, 18]: 1.503
- Complete ([2]; NCI-H292 cells, complete media): 1.066
- Difference [2, 19]: −0.44

Compound: COc1cc(N)c(Cl)cc1C(=O)NC1CCN(CCCOc2ccc(F)cc2)CC1OC (centres unmarked) [Cisapride]
- Cholesterol-free media + simvastatin (0.04 μM) [1, 20]: 1.001
- Complete Media [1, 17]: 0.8916
- Difference [1, 14]: −0.11
- Difference [2, 21]: −0.91
- Cholesterol-free [2, 22]: 1.595
- Complete [2, 23]: 0.6865

Compound: CN(C)CCCC1(c2ccc(F)cc2)OCc2cc(C#N)ccc21 (centres unmarked) [Citalopram (hydrobromide)]
- Cholesterol-free media + simvastatin (0.04 μM) [1, 12]: 1.457
- Complete Media [1, 13]: 0.8476
- Difference [1, 14]: −0.61
- Cholesterol-free [2, 6]: 0.8091
- Complete [2, 7]: 1.106
- Difference [2, 24]: 0.30

Compound: C[N+](C)(C)CCOP(=O)([O-])OP(=O)([O-])OC[C@H]1O[C@@H](n2ccc(N)nc2=O)[C@H](O)[C@@H]1O.[Na+] [Citicoline (sodium)]
- Cholesterol-free media + simvastatin (0.04 μM) [1, 3]: 1.337
- Complete Media [1, 4]: 1.292
- Difference [1, 25]: −0.04
- Cholesterol-free [2, 18]: 1.151
- Complete ([2]; NCI-H292 cells, complete media): 0.8125
- Difference [2, 19]: −0.34

Compound: C[N+](C)(C)CCOP(=O)(O)OP(=O)([O-])OC[C@H]1O[C@@H](n2ccc(N)nc2=O)[C@H](O)[C@@H]1O [Citicoline]
- Cholesterol-free media + simvastatin (0.04 μM) [1, 20]: 0.6677
- Complete Media [1, 17]: 1.557
- Difference [1, 10]: 0.89
- Cholesterol-free [2, 6]: 0.7726
- Complete [2, 7]: 1.062
- Difference [2, 24]: 0.29

Compound: O=C(O)CC(O)(CC(=O)O)C(=O)O [Citric acid]
- Cholesterol-free media + simvastatin (0.04 μM) [1, 3]: 1.227
- Complete Media [1, 4]: 1.209
- Difference [1, 25]: −0.02
- Difference [2, 15]: −0.17
- Cholesterol-free [2, 16]: 0.92
- Complete [2, 17]: 0.7466

Compound: Nc1nc(Cl)nc2c1ncn2[C@H]1C[C@H](O)[C@@H](CO)O1 [Cladribine]
- Cholesterol-free media + simvastatin (0.04 μM) [1, 20]: 0.1545
- Complete Media [1, 17]: 0.02741
- Difference [1, 14]: −0.13
- Difference [2, 11]: 0.07
- Cholesterol-free [2, 6]: −0.008506
- Complete [2, 7]: 0.0649

Compound: CC[C@H]1OC(=O)[C@H](C)[C@@H](O[C@H]2C[C@@](C)(OC)[C@@H](O)[C@H](C)O2)[C@H](C)[C@@H](O[C@@H]2O[C@H](C)C[C@H](N(C)C)[C@H]2O)[C@](C)(OC)C[C@@H](C)C(=O)[C@H](C)[C@@H](O)[C@]1(C)O [Clarithromycin]
- Cholesterol-free media + simvastatin (0.04 μM) [1, 20]: 1.214
- Complete Media [1, 17]: 1.064
- Difference [1, 14]: −0.15
- Difference [2, 21]: −0.74
- Cholesterol-free [2, 22]: 1.607
- Complete [2, 23]: 0.8616

Compound: O=C(O)[C@H]1/C(=C/CO)O[C@@H]2CC(=O)N21 [Clavulanate (lithium)]
- Cholesterol-free media + simvastatin (0.04 μM) [1, 12]: 1.974
- Complete Media [1, 13]: 1.387
- Difference [1, 14]: −0.59
- Difference [2, 11]: 0.07
- Cholesterol-free [2, 6]: 1.545
- Complete [2, 7]: 1.617

Compound: Clc1ccc(Cn2c(CN3CCCC3)nc3ccccc32)cc1 [Clemizole (hydrochloride)]
- Cholesterol-free media + simvastatin (0.04 μM) [1, 8]: 0.9553
- Complete Media [1, 9]: 1.07
- Difference [1, 10]: 0.11
- Difference [2, 15]: −0.11
- Cholesterol-free [2, 16]: 1.125
- Complete [2, 17]: 1.013

Compound: CCCC(=O)OCOC(=O)C1=C(C)NC(C)=C(C(=O)OC)C1c1cccc(Cl)c1Cl (centres unmarked) [Clevidipine]
- Cholesterol-free media + simvastatin (0.04 μM) [1, 8]: 0.8061
- Complete Media [1, 9]: 0.9036
- Difference [1, 10]: 0.10
- Cholesterol-free [2, 18]: 1.292
- Complete ([2]; NCI-H292 cells, complete media): 0.9289
- Difference [2, 19]: −0.36

Compound: Cc1cn([C@H]2O[C@@H](CO)[C@H](O)[C@H]2F)c(=O)[nH]c1=O [Clevudine]
- Cholesterol-free media + simvastatin (0.04 μM) [1, 20]: 0.7152
- Complete Media [1, 17]: 0.881
- Difference [1, 10]: 0.17
- Difference [2, 11]: −0.06
- Cholesterol-free [2, 6]: 0.975
- Complete [2, 7]: 0.9127

Compound: C[N+]12CCC(CC1)C(OC(=O)C(O)(c1ccccc1)c1ccccc1)C2.[Br-] (centres unmarked) [Clidinium (bromide)]
- Cholesterol-free media + simvastatin (0.04 μM) [1]: 1.456
- Complete Media [1]: 1.482
- Difference [1]: 0.03
- Cholesterol-free [2]: 1.17
- Complete [2]: 1.604
- Difference [2]: 0.43

Compound: CCC[C@@H]1C[C@@H](C(=O)N[C@@H]([C@H]2O[C@H](SC)[C@H](O)[C@@H](O)[C@H]2O)[C@H](C)Cl)N(C)C1 [Clindamycin (hydrochloride)]
- Cholesterol-free media + simvastatin (0.04 μM) [1, 8]: 1.243
- Complete Media [1, 9]: 1.299
- Difference [1, 10]: 0.06
- Difference [2, 15]: −0.08
- Cholesterol-free [2, 16]: 1.009
- Complete [2, 17]: 0.9276

Compound: CCC[C@@H]1C[C@@H](C(=O)N[C@@H]([C@H]2O[C@H](SC)[C@H](OP(=O)(O)O)[C@@H](O)[C@H]2O)[C@H](C)Cl)N(C)C1 [Clindamycin (phosphate)]
- Cholesterol-free media + simvastatin (0.04 μM) [1, 8]: 1.017
- Complete Media [1, 9]: 1.129
- Difference [1, 10]: 0.11
- Cholesterol-free [2, 18]: 1.342
- Complete ([2]; NCI-H292 cells, complete media): 0.8969
- Difference [2, 19]: −0.44

Compound: CCCCCCCCCCCCCCCC(=O)O[C@@H]1[C@@H](O)[C@@H](O)[C@@H]([C@H](NC(=O)[C@@H]2C[C@@H](CCC)CN2C)[C@H](C)Cl)O[C@@H]1SC.Cl [Clindamycin palmitate (hydrochloride)]
- Cholesterol-free media + simvastatin (0.04 μM) [1, 20]: 1.093
- Complete Media [1, 17]: 0.9482
- Difference [1, 14]: −0.14
- Cholesterol-free [2, 6]: 0.6777
- Complete [2, 7]: 1.478
- Difference [2, 24]: 0.80

Compound: CCC(C)(Oc1ccc(C2(c3ccc(OC(C)(CC)C(=O)O)cc3)CCCCC2)cc1)C(=O)O (centres unmarked) [Clinofibrate]
- Cholesterol-free media + simvastatin (0.04 μM) ([1]; NCI-H292 cells, drug in cholesterol-free media with simvastatin 0.04 μM): 1.342
- Complete Media ([1]; NCI-H292 cells, drug in complete media): 1.081
- Difference [1, 14]: −0.26
- Cholesterol-free [2, 18]: 1.347
- Complete ([2]; NCI-H292 cells, complete media): 1.007
- Difference [2, 19]: −0.34

Compound: Oc1c(I)cc(Cl)c2cccnc12 [Clioquinol]
- Cholesterol-free media + simvastatin (0.04 μM) [1, 20]: 1.168
- Complete Media [1, 17]: 1.009
- Difference [1, 14]: −0.16
- Cholesterol-free [2, 6]: 0.6089
- Difference [2, 24]: 0.57

Compound: CCC(=O)O[C@]1(C(=O)CCl)[C@@H](C)C[C@H]2[C@@H]3CCC4=CC(=O)C=C[C@]4(C)[C@@]3(F)[C@@H](O)C[C@@]21C [Clobetasol propionate]
- Cholesterol-free media + simvastatin (0.04 μM) [1, 8]: 0.7256
- Complete Media [1, 9]: 0.7474
- Difference [1, 10]: 0.02
- Difference [2, 11]: −0.20
- Cholesterol-free [2, 18]: 1.481
- Complete ([2]; NCI-H292 cells, complete media): 1.28

Compound: CCCC(=O)O[C@]1(C(=O)CCl)[C@H](C)C[C@@H]2[C@@H]3CCC4=CC(=O)C=C[C@]4(C)[C@]3(F)C(=O)C[C@@]21C [Clobetasone butyrate]
- Cholesterol-free media + simvastatin (0.04 μM) ([1]; NCI-H292 cells, cholesterol-free media with simvastatin 0.04 μM, […]): 0.5437
- Complete Media ([1]; NCI-H292 cells, complete media, […]): 0.5699
- Difference ([1]; complete media minus cholesterol-free media + simvastatin, […]): 0.03
- Difference [2, 5]: −0.18
- Cholesterol-free [2, 16]: 0.6832
- Complete [2, 17]: 0.5004

Compound: O.O.O.O.O=P([O-])(O)C(Cl)(Cl)P(=O)([O-])O.[Na+].[Na+] [Clodronate (disodium tetrahydrate)]
- Cholesterol-free media + simvastatin (0.04 μM) [1, 8]: 0.8439
- Complete Media [1, 9]: 0.9326
- Difference [1, 10]: 0.09
- Difference [2, 11]: −0.05
- Cholesterol-free [2, 6]: 1.08
- Complete [2, 7]: 1.034

Compound: O=P(O)(O)C(Cl)(Cl)P(=O)(O)O [Clodronic acid (disodium salt)]
- Cholesterol-free media + simvastatin (0.04 μM) [1, 12]: 1.883
- Complete Media [1, 13]: 1.075
- Difference [1, 14]: −0.81
- Difference [2, 11]: 0.00
- Cholesterol-free [2, 6]: 0.9505
- Complete [2, 7]: 0.955

Compound: Nc1nc(Cl)nc2c1ncn2[C@@H]1O[C@H](CO)[C@@H](O)[C@@H]1F [Clofarabine]
- Cholesterol-free media + simvastatin (0.04 μM) [1, 3]: 0.03305
- Complete Media [1, 4]: 0.03609
- Difference [1, 25]: 0.00
- Cholesterol-free [2, 18]: 0.802
- Complete ([2]; NCI-H292 cells, complete media): 0.4474
- Difference [2, 19]: −0.35
